Legend:
[1] = target: FLT3-ITD (Homo sapiens, UniProt P36888); experiment: HotSpot radiometric kinase assay (Reaction Biology); assay type: biochemical
[2] = target: CLK1 (Homo sapiens (Human), UniProt P49759); experiment: CLK kinase activity assay (ADP-Glo); assay type: biochemical
Method: (§1) Kinase protein and substrate were pre-diluted in the HEPES assay buffer (100 mM HEPES, pH 7.5, 0.01% Triton X-100, 0.1% BSA, 5 mM MgCl2, 1 mM DTT, 10 μM Sodium Orthovanadate, 10 μM Beta-Glycerophosphate) dispensed into 384 well plate (5 μL per well). Control samples (0%-inhibition in the absence of inhibitor, DMSO only) and 100%-inhibition (in the absence of enzyme) were assembled in replicates of six and were used to calculate %-inhibition in the presence of compounds. Test compounds were added to the protein samples by acoustic dispensing (Labcyte Echo550). Concentration of DMSO was equalized to 1% in all samples. Reactions were initiated by addition of ATP by acoustic dispensing (Labcyte Echo550) and incubated according to assay specific incubation time. After incubation, 5 uL of Promega ADP-Glo reagent was added and incubated for 40 minutes. After 40 minutes, 10 uL of Promega kinase detection reagent was added. After 10 min of incubation with Kinase detection reagent, the luminescence was read on microplate reader (Biotek Synergy).

[3] = target: CLK2 (Homo sapiens (Human), UniProt P49760); experiment: CLK kinase activity assay (ADP-Glo); assay type: biochemical
Method: as §1

[4] = target: CLK3 (Homo sapiens (Human), UniProt P49761); experiment: CLK kinase activity assay (ADP-Glo); assay type: biochemical
Method: as §1

[5] = target: CLK4 (Homo sapiens (Human), UniProt Q9HAZ1); experiment: CLK kinase activity assay (ADP-Glo); assay type: biochemical
Method: as §1

[6] = tested on: MV-4-11 cells; experiment: MV-4-11 cell proliferation assay (CellTiter-Glo 2.0); assay type: cell-based; conditions: MV-4-11, 384-well, 11-dose dilution series; read-out: IC50, inhibition of MV-4-11 cell proliferation
Method: MV-4-11 cell line was purchased from ATCC and maintained in RPMI medium supplemented with 10% fetal bovine serum and 100 U/mL of penicillin/streptomycin. One thousand MV-4-11 cells/50 μl per well were seeded in white 384-well plate, followed by treatment with indicated compounds in a 11-dose dilution series. Cell proliferation was measured using CellTiter-Glo 2.0 luciferase-based ATP detection assay (Promega, Madison, WI) following the manufacturer's protocol. Plates were then read on a TECAN Sparks multimode microplate reader. Data was analyzed using GraphPad Prism 9 (GraphPad Software, San Diego, CA) to obtain IC50 values.

[7] = tested on: BaF3 FLT3-ITD/D835V; experiment: Cell proliferation panel (CellTiter-Glo 2.0, 5 days); assay type: cell-based; conditions: murine pro-B cell line expressing FLT3-ITD/D835V
From the text: (§2) Ba/F3 cells were purchased from DSMZ. The FLT3-ITD gene was synthesized at GenScript and cloned into pCDH-CMV-MCS-EF1-Puro plasmid (System Biosciences, Inc). FLT3-ITD/D835V and FLT3-ITD/F691L cDNA clones were made at GenScript by PCR and confirmed by sequence. Ba/F3 FLT3-ITD, FLT3-ITD/D835V and FLT3-ITD/F691L cell lines were generated by infecting Ba/F3 cells with lentivirus containing FLT3-ITD, FLT3-ITD/D835V or FLT3-ITD/F691L genes. Stable cell lines were selected by puromycin treatment, followed by IL-3 withdrawal.
(§3) Cell proliferation assay was carried out in a panel of 108 cell lines. 1000 (attached cells) or 3000 (suspension cells) cells/100 μl per well were seeded in 96 well black plate with a clear bottom (Corning #3904). Compounds were added using Tecan D300e Digital Dispenser in 1:3 titration for 9 doses. Plates were incubated for 5 days at 37° C. and 5% CO2. Cell proliferation was measured using CellTiter-Glo 2.0 luciferase-based ATP detection assay (Promega, Madison, WI) at 50 μl per well following the manufacturer's protocol. Plates were then read on a TECAN Sparks multimode microplate reader. Data was analyzed using GraphPad Prism 9 (GraphPad Software, San Diego, CA) to obtain IC50 values. IC50 values were determined using Prism software (GraphPad Software, San Diego, CA).

[8] = tested on: BaF3 FLT3-ITD/F691L; experiment: as above; assay type: cell-based; conditions: murine pro-B cell line expressing FLT3-ITD/F691L
From the text: as §2, §3

[9] = tested on: BaF3 FLT3-ITD; experiment: as above; assay type: cell-based; conditions: murine pro-B cell line expressing FLT3-ITD
From the text: as §2, §3

[10] = tested on: BaF3; experiment: as above; assay type: cell-based; conditions: murine IL-3 dependent pro-B cell line, with 1 ng/mL mouse IL-3
From the text: as §2, §3

[11] = tested on: S6K (PRS6KB1) exon6-8/exon 6-7; experiment: Alternative splicing ratio by qPCR in MOLM-13; assay type: cell-based; conditions: DMSO = 1.02
Method: (§4) Alternative splicing ratio of RNA transcripts was measured by qPCR in MV-4-11 and MOLM-13 cell lines. Cells were plated in 24 well plates at 1 million cells per well and then treated with compounds at different concentrations, with DMSO only as control. After 8-hour-incubation, cells were harvested and washed once with ice-cold PBS, and lysed in RNA lysis buffer (Invitrogen). Total RNA was extracted using the RNA Purification Kit (Invitrogen). 2 μg of RNA was used for cDNA synthesis using cDNA synthesis kit (ThermoFisher) and 20 ng of cDNA was used for qPCR using PROFLEX 96-Well PCR System (ThermoFisher).

[12] = tested on: BCLxS/xL; experiment: Alternative splicing ratio by qPCR in MOLM-13; assay type: cell-based; conditions: DMSO = 1.00
Method: as §4
• BCLxS/xL (SYBR Green, IDT)

Sequence of CLK2 (P49760 whole entry): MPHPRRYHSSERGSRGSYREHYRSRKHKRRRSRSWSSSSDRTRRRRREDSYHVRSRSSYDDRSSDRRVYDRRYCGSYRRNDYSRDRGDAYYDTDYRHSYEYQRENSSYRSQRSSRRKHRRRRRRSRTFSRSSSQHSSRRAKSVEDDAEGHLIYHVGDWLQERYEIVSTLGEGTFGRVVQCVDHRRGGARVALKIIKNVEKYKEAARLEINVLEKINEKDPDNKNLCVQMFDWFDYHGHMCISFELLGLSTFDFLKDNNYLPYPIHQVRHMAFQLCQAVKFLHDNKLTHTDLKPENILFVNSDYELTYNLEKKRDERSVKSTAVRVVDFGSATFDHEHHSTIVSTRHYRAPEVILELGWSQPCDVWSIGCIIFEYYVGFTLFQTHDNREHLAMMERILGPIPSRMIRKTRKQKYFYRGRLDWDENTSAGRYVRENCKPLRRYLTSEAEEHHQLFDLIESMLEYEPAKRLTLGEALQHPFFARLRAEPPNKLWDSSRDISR
Sequence of CLK1 (P49759 whole entry): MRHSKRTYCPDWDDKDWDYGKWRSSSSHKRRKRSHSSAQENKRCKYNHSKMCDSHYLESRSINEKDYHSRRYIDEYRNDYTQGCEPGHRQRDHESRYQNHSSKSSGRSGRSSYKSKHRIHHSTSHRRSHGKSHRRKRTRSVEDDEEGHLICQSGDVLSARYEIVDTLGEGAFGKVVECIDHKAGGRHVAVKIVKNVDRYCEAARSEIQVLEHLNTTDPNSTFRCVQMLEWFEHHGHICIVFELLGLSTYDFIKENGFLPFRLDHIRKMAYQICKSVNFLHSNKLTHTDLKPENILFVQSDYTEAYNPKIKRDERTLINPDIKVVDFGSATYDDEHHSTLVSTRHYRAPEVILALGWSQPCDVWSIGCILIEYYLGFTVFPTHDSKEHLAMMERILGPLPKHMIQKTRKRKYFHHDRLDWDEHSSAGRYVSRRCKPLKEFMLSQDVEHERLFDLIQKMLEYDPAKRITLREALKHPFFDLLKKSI
Sequence of FLT3-ITD (P36888 whole entry, looked up, change not shown): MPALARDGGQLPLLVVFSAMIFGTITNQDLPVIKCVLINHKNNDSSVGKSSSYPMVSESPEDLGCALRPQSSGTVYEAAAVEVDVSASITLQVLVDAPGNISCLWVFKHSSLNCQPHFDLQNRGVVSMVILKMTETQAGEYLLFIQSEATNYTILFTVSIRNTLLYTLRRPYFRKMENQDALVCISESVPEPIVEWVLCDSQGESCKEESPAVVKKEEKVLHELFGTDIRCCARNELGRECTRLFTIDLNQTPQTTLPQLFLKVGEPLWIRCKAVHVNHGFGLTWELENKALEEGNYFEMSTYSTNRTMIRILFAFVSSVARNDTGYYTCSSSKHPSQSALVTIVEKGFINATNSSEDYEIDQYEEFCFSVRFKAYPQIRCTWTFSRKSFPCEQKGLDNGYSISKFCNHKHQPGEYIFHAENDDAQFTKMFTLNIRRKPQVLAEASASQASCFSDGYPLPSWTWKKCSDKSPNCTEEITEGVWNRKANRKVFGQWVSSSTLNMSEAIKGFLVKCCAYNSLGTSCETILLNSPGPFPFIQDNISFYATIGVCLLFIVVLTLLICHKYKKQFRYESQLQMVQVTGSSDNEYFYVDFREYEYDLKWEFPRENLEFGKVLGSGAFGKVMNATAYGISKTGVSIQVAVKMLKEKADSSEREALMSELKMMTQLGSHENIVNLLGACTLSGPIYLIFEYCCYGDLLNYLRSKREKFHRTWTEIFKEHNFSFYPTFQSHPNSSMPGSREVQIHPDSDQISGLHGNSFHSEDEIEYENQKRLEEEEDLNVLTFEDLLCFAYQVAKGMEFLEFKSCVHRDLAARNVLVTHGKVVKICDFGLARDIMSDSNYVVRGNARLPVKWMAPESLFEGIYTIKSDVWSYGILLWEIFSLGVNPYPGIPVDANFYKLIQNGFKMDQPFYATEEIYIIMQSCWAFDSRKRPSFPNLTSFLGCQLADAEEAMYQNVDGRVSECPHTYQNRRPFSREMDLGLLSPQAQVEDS
Sequence of CLK3 (P49761 whole entry): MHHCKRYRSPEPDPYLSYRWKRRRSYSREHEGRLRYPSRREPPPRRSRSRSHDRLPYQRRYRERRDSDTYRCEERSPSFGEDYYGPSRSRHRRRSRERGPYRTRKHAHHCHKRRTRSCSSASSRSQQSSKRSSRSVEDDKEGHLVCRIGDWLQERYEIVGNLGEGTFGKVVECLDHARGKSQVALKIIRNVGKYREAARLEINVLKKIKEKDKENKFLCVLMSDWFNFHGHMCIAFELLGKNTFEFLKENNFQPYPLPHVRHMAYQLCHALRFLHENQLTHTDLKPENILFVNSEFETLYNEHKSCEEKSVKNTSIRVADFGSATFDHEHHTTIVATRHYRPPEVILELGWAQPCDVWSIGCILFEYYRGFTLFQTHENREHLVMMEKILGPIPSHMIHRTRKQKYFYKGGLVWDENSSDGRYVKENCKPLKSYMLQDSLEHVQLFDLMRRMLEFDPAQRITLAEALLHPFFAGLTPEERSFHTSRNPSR
Sequence of CLK4 (Q9HAZ1 whole entry): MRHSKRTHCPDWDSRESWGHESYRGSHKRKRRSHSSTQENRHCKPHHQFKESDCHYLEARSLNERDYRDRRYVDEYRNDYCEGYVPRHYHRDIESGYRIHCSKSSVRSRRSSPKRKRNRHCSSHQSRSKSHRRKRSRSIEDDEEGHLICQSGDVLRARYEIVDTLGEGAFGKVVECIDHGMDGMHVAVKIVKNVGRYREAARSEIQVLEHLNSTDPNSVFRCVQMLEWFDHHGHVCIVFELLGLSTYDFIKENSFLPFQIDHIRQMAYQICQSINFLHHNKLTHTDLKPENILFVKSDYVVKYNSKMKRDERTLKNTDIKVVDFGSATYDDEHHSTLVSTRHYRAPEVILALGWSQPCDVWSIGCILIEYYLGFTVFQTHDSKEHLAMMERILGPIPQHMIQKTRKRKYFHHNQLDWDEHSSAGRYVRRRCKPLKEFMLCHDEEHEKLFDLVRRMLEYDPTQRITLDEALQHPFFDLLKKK

IC50 [1]: 0.348 nM
IC50 [2]: 0.134 nM
IC50 [3]: 0.165 nM
IC50 [4]: 5.87 nM
IC50 [5]: 0.446 nM
IC50 [6]: 0.3 nM
IC50 [7]: 1.3 nM
IC50 [8]: 22.9 nM
IC50 [9]: 0.55 nM
IC50 [10]: 513 nM
Structure (SMILES): CCc1nn(C)c2c1/C=C/c1n[nH]c3ccc(cc13)-c1cnn(C)c1OCCN(C)C2=O [Ex. 6, (17E)-16-ethyl-8,12,14-trimethyl-2,11,12,14-tetrahydro-8H-3,5-ethenotripyrazolo[3,4-f:3′,4′-j:4″,3″-n][1,4]oxazacyclopentadecin-13(10H)-one]
Alternative Splicing Ratio S6K Ex. 6-8/Ex. 6-7 ([11]; MOLM-13, 30 nM): 1.60
Alternative Splicing Ratio S6K Ex. 6-8/Ex. 6-7 ([11]; MOLM-13, 100 nM): 2.71
Alternative Splicing Ratio S6K Ex. 6-8/Ex. 6-7 ([11]; MOLM-13, 300 nM): 8.08
Alternative Splicing Ratio BCL-xS/xL ([12]; MOLM-13, 30 nM): 1.51
Alternative Splicing Ratio BCL-xS/xL ([12]; MOLM-13, 100 nM): 3.54
Alternative Splicing Ratio BCL-xS/xL ([12]; MOLM-13, 300 nM): 4.20

— US20260070924A1, “INDAZOLE MACROCYCLES AND THEIR USE” (BLOSSOMHILL THERAPEUTICS, INC., priority 2022, published 2026)
